Results reported in BigSolDB 2.1.

O=C(O)Cc1ccc([N+](=O)[O-])cc1
solubility (mole fraction)
Conditions	283.15 K	288.15 K	293.15 K	298.15 K	303.15 K	308.15 K	313.15 K	318.15 K	323.15 K	328.15 K
in DMAc	0.0895	0.1	0.114	0.131	0.149	0.169	0.191	0.216	0.24	0.271
in DMF	0.161	0.178	0.2	0.225	0.251	0.28	0.311	0.342	0.377	0.417
in acetonitrile	0.0193	0.0223	0.0266	0.0312	0.0375	0.0449	0.0535	0.0639	0.0761	0.0918
in cyclohexane	1.2e-05	1.69e-05	2.3e-05	3.11e-05	4.12e-05	5.45e-05	7.11e-05	9e-05	0.000113	0.00014
in ethanol	0.0758	0.0849	0.0979	0.111	0.128	0.148	0.17	0.196	0.223	0.254
in ethyl acetate	0.0309	0.0352	0.041	0.0487	0.0576	0.0694	0.0823	0.098	0.116	0.137
in ethylene glycol	0.0168	0.0185	0.0213	0.0254	0.0301	0.0361	0.0428	0.0503	0.0596	0.0723
in isobutanol	0.025	0.0282	0.0323	0.0389	0.0464	0.0554	0.0658	0.0776	0.0917	0.11
in isopropanol	0.028	0.031	0.0373	0.0455	0.0542	0.065	0.0768	0.0914	0.109	0.131
in methanol	0.125	0.137	0.155	0.174	0.195	0.218	0.245	0.274	0.305	0.341
in n-butanol	0.0498	0.0564	0.0653	0.0758	0.0877	0.101	0.117	0.135	0.156	0.178
in n-propanol	0.0518	0.0589	0.0683	0.0784	0.0916	0.106	0.124	0.145	0.168	0.193
in water	0.000141	0.00017	0.000209	0.000264	0.000336	0.000422	0.000528	0.000663	0.000816	0.00101
